Counter-ions that a name gives are not always drawn. Like-named read-outs stand apart in the source and are kept apart here.

What is called EC50 is the concentration giving half of the maximal effect. A high value points to lower potency in that assay. In general, melting point refers to the temperature of the solid-liquid transition.

One data set deals with T1, PPARγ-RXRα heterodimer (Homo sapiens, UniProt P37231).
T1 construct: expressed in transfected cells; host or cells: CHO-K1
T1 sequence (P37231 1-505): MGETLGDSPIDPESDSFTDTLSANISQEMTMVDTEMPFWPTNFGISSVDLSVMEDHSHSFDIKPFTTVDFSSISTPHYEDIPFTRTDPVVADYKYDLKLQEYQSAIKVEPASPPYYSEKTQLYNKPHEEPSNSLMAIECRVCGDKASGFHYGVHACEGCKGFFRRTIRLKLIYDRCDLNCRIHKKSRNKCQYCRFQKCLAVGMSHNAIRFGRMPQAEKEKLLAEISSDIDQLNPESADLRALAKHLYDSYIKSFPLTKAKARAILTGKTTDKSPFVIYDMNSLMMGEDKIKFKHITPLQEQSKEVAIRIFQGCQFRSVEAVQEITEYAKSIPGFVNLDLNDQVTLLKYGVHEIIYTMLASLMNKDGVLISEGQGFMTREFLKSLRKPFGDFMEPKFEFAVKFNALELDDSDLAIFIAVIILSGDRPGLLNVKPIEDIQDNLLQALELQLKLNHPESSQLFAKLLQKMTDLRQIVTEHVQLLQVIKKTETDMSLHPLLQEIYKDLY
T1 sequence (P19793 1-462 partner): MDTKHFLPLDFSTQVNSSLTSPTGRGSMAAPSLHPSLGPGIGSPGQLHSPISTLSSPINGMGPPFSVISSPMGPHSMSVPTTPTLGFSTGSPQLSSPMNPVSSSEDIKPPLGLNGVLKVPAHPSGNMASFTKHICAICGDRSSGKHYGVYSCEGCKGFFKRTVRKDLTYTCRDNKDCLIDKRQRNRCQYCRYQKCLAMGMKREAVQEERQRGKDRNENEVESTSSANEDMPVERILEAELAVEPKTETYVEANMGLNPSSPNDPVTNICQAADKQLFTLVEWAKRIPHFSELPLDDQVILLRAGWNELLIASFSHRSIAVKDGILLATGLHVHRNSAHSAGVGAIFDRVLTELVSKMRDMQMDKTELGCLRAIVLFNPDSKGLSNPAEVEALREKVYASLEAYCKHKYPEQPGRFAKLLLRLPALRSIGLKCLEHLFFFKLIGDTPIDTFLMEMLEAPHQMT
Briefly: PPARγ-RXRα heterodimer ligand activity (luciferase reporter). It counts as cell-based. As to conditions: PPARγ:RXRα:4ERPP/CHO-K1 cells, 18-24 hr, concentration showing 50% of the maximum induction rate. As to the method: The PPARγ:RXRα:4ERPP/CHO-K1 cells described in WO03/099793 were cultured in a Ham F12 medium [manufactured by Life Technologies, Inc., US] containing 10% calf fetal serum [manufactured by Life Technologies, Inc., US], sown in a 96-well white plate [manufactured by Corning Coster Corporation, US] at 2×10^4 cells/well, and incubated overnight in a carbon dioxide gas incubator at 37° C.
Then, the medium was removed from the 96 well white plate, 80 μl of Ham F12 medium containing 0.1% fatty acid-free bovine serum albumin (BSA) and a test compound (20 μl) were added, and the cells were incubated for 18-24 hr in a carbon dioxide gas incubator at 37° C. The medium was removed, 40 μl of PicaGene 7.5 (manufactured by Wako Pure Chemical Industries, Ltd.) diluted 2-fold with HBSS (HANKS' BALANCED SALT SOLUTION) [manufactured by BIO WHITTAKER, US] was added. After stirring, the luciferase activity was determined using the 1420 ARVO Multilabel Counter [manufactured by PerkinElmer, US].
The induction rate was calculated from the luciferase activity of each test compound based on the luciferase activity of the test compound non-administration group as 1. The test compound concentration and the induction rate were analyzed by PRISM [manufactured by GraphPad Software, Inc., US] to calculate EC50 value (compound concentration showing 50% of the maximum value of induction rate) of the test compound.

The test system of another data set is KKA^y mice. Briefly: Blood glucose and blood lipid (triglyceride) lowering action in mice. Type of data set: in vivo. The settings on record: Mus musculus, po, 96 h, 0.005% in powder diet, 4 days, non-administration group = 100%. An excerpt: The test compound was mixed with a powder diet (CE-2, CLEA JAPAN, INC.) at a proportion of 0.005% (0.01% for the compound of Example 105) and freely given to KKA^y mice (9 to 12-week-old, 5 mice per group) which are obesity-insulin independent diabetes mellitus (type-2 diabetes) models, for 4 days. During this period, water was freely given. The blood was drawn from the orbital venous plexus. Glucose and triglyceride in the plasma separated from the blood were quantitated using L Type Wako Glu2 (Wako Pure Chemical Industries, Ltd.) and L Type Wako TG•H (Wako Pure Chemical Industries, Ltd.), respectively, according to an enzyme method.

Where [1] appears, read: lowering rate of plasma glucose, read-out: hypoglycemic action (%).
The mark [2] stands for this setting: lowering rate of plasma triglyceride, read-out: hypolipidemic action (%).

Compound `CC(C)Oc1cc(CCCOc2nn(Cc3ccccc3)cc2CC(=O)O)n(Cc2ccc(Cl)cc2Cl)n1` [Example 86, (1-benzyl-3-{3-[1-(2,4-dichlorobenzyl)-3-isopropoxy-1H-pyrazol-5-yl]propoxy}-1H-pyrazol-4-yl)acetic acid] had a melting point of 108 to 110 °C. In addition, it took 2.5 nM to reach a half-maximal effect at PPARγ-RXRα heterodimer (EC50). The inhibition in vivo at 0.005 % in the data set on KKA^y mice (setting [1]) was 51%. For the same compound, in the data set on KKA^y mice (setting [2]), the inhibition in vivo at 0.005 % is 51%.
With `CC(C)c1cc(CCCOc2ncccc2CC(=O)O)n(Cc2ccc(C(F)(F)F)cc2Cl)n1` [Example 77, [2-(3-{1-[2-chloro-4-(trifluoromethyl)benzyl]-3-isopropyl-1H-pyrazol-5-yl}propoxy)pyridin-3-yl]acetic acid], the melting point was in the range of 114 to 115 °C. Also, the EC50 on PPARγ-RXRα heterodimer amounted to 5.4 nM. Moreover, the inhibition in vivo at 0.005 % in the data set on KKA^y mice (setting [1]) amounted to 63%. Also, in the data set on KKA^y mice (setting [2]), the inhibition in vivo at 0.005 % was found to be 42%.
`Cc1cc(C(F)(F)F)ccc1Cn1nc(OC(C)C)cc1CCCOc1nn(Cc2ccccc2)cc1CC(=O)O` [Example 78, [1-benzyl-3-(3-{3-isopropoxy-1-[2-methyl-4-(trifluoromethyl)benzyl]-1H-pyrazol-5-yl}propoxy)-1H-pyrazol-4-yl]acetic acid]: the 50% effective concentration (EC50) at PPARγ-RXRα heterodimer was determined as 1.3 nM. The inhibition in vivo at 0.005 % with KKA^y mice (setting [1]) was determined as 63%; in the data set on KKA^y mice (setting [2]), 55%.
Consider `COc1cccc(CC(=O)O)c1OCCCc1cc(OC(C)C)nn1C(C)c1ccc(Cl)cc1Cl` (stereo not shown) [Example 17, [2-(3-{1-[1-(2,4-dichlorophenyl)ethyl]-3-isopropoxy-1H-pyrazol-5-yl}propoxy)-3-methoxyphenyl]acetic acid], for which the concentration for a half-maximal effect (EC50) on PPARγ-RXRα heterodimer is 6.2 nM. Besides, the inhibition in vivo at 0.005 % in the data set on KKA^y mice (setting [1]) is 57%; with KKA^y mice (setting [2]), 78%.
The compound `CC(C)c1cc(CCCOc2nn(Cc3ccccc3)cc2CC(=O)O)n(Cc2ccc(C(F)(F)F)cc2Cl)n1` [Example 76, [1-benzyl-3-(3-{1-[2-chloro-4-(trifluoromethyl)benzyl]-3-isopropyl-1H-pyrazol-5-yl}propoxy)-1H-pyrazol-4-yl]acetic acid 1/2 calcium salt] registered an EC50 at PPARγ-RXRα heterodimer of 1.5 nM. In addition, the inhibition in vivo at 0.005 % with KKA^y mice (setting [1]) turned out to be 64%; in the data set with KKA^y mice (setting [2]), 57%.
Consider `CCn1nc(OCCCc2ccc(OCCOC(C)C)cc2Oc2ncc(C(F)(F)F)cc2Cl)cc1CCC(=O)O` [Example 150, 3-(3-{3-[2-{[3-chloro-5-(trifluoromethyl)pyridin-2-yl]oxy}-4-(2-isopropoxyethoxy)phenyl]propoxy}-1-ethyl-1H-pyrazol-5-yl)propanoic acid], for which the melting point lay within 130.5 to 131.5 °C. For the same compound, at PPARγ-RXRα heterodimer, the concentration for a half-maximal effect (EC50) was 2.6 nM. Further, the inhibition in vivo at 0.005 % in the data set on KKA^y mice (setting [1]) was found to be 58%. Moreover, in the data set on KKA^y mice (setting [2]), the inhibition in vivo at 0.005 % amounted to 54%.
Take `CC(C)Oc1cc(CCCOc2ncccc2CC(=O)O)n(Cc2ccc(Cl)cc2Cl)n1` [Example 31, (2-{3-[1-(2,4-dichlorobenzyl)-3-isopropoxy-1H-pyrazol-5-yl]propoxy}pyridin-3-yl)acetic acid]: the melting point lay in the range of 88 to 90 °C. Besides, the EC50 at PPARγ-RXRα heterodimer amounted to 14 nM. Also, in the data set with KKA^y mice (setting [1]), the inhibition in vivo at 0.005 % amounted to 44%. For the same compound, the inhibition in vivo at 0.005 % with KKA^y mice (setting [2]) came to 55%.
On the same counts, the results for `CCn1nc(OCCCc2ccc(OCCOC)cc2Oc2ncc(C(F)(F)F)cc2Cl)cc1CCC(=O)O` [Example 149, 3-(3-{3-[2-{[3-chloro-5-(trifluoromethyl)pyridin-2-yl]oxy}-4-(2-methoxyethoxy)phenyl]propoxy}-1-ethyl-1H-pyrazol-5-yl)propanoic acid] are 101 to 103 °C, 5 nM, 57% and 51%.
For `COc1cccc(CC(=O)O)c1OCCCc1cc(OC(C)C)nn1Cc1ccccc1C` [Example 21, (2-{3-[3-isopropoxy-1-(2-methylbenzyl)-1H-pyrazol-5-yl]propoxy}-3-methoxyphenyl)acetic acid], on PPARγ-RXRα heterodimer, the response was half-maximal at 41 nM (EC50). The values for the inhibition in vivo at 0.005 % in the data set with KKA^y mice (setting [1]) and in the data set on KKA^y mice (setting [2]) were 51% and 78%, respectively.
With `COc1cccc(CC(=O)O)c1OCCCc1cc(OC(C)C)nn1Cc1ccc(F)cc1F` [Example 60, (2-{3-[1-(2,4-difluorobenzyl)-3-isopropoxy-1H-pyrazol-5-yl]propoxy}-3-methoxyphenyl)acetic acid], the inhibition in vivo at 0.005 % in the data set on KKA^y mice (setting [1]) came out at 54%; in the data set on KKA^y mice (setting [2]) it was 76%.
`COCOc1cc(CCCOc2nn(Cc3ccccc3)cc2CC(=O)O)n(Cc2ccc(Cl)cc2Cl)n1` [Example 95, (1-benzyl-3-{3-[1-(2,4-dichlorobenzyl)-3-(methoxymethoxy)-1H-pyrazol-5-yl]propoxy}-1H-pyrazol-4-yl)acetic acid]: the melting point fell in the range of 89.5 to 91.5 °C. On PPARγ-RXRα heterodimer, this compound gave a half-maximal effective concentration (EC50) of 2.4 nM. For the same compound, the inhibition in vivo at 0.005 % in the data set on KKA^y mice (setting [1]) was 65%. In addition, in the data set with KKA^y mice (setting [2]), the inhibition in vivo at 0.005 % was 65%.
At PPARγ-RXRα heterodimer, `COc1cccc(CC(=O)O)c1OCCCc1cc(OC(C)C)nn1Cc1ccccc1Cl` [Example 61, (2-{3-[1-(2-chlorobenzyl)-3-isopropoxy-1H-pyrazol-5-yl]propoxy}-3-methoxyphenyl)acetic acid] yielded a 50% effective concentration (EC50) of 25 nM. Further, the inhibition in vivo at 0.005 % was 51% in the data set on KKA^y mice (setting [1]) and 90% with KKA^y mice (setting [2]).
Regarding `COc1cccc(CC(=O)O)c1OCCCc1cc(C(C)C)nn1Cc1ccc(Cl)cc1Cl` [Example 35, (2-{3-[1-(2,4-dichlorobenzyl)-3-isopropyl-1H-pyrazol-5-yl]propoxy}-3-methoxyphenyl)acetic acid], the melting point fell in the range of 101 to 102 °C. Moreover, it took 2.7 nM to reach a half-maximal effect at PPARγ-RXRα heterodimer (EC50).

(Values after patent US20080051418A1, “Arylalkanoic Acid Derivative” (priority 2004, published 2008).)
